According to US11767322B2 (BRISTOL-MYERS SQUIBB COMPANY, priority 2020, dated 2023):
Read-outs that look alike come from different tables or passages of the source.

Tests used:
[1] = biological target: GST-tagged PIK3Cδ in complex with PIK3R1 (Homo sapiens, UniProt O00329); assay: PI3Kδ HTRF binding assay; conditions: HTRF probe displacement, 1 h at rt; read-out: PIK3CD IC50
[2] = tested on: MLKL phosphorylation in HT29-L23 human colorectal adenocarcinoma cells; assay: MLKL phosphorylation high-content assay; assay type: cell-based
[3] = biological target: T1, His-GST-TVMV-hRIPK1(1-324) (Homo sapiens, UniProt Q13546); assay: biochemical; assay type: binding; conditions: read-out: RIPK1 IC50
T1 construct: The coding region of human RIPK1(1-324) flanked by NdeI site at 5′ end; made in house; host or cells: Spodoptera frugiperda Sf9 insect cells (baculovirus, Bac-to-Bac)
T1 sequence (Q13546 1-324): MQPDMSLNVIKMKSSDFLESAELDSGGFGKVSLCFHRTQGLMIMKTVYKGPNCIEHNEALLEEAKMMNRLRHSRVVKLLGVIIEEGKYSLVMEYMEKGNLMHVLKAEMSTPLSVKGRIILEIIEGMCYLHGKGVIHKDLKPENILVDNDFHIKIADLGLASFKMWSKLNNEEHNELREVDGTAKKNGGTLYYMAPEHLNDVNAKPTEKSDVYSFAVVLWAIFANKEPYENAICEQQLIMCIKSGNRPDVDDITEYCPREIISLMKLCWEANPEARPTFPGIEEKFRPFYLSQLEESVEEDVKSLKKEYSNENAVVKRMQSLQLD

[4] = read-out: pMLKL IC50, HT29-L23 cells, necroptosis induced with TNFα, SMAC mimetic and Z-VAD, 6 h, maximal inhibition defined by Nec1s
[5] = HTRF probe displacement, 1 h at rt
[6] = Homo sapiens, 6 h, read-out: pMLKL IC50, HT29-L23 cells, necroptosis induced with TNFα, SMAC mimetic and Z-VAD, 6 h, maximal inhibition defined by Nec1s

GST-tagged PIK3Cδ in complex with PIK3R1, sequence (O00329 whole entry): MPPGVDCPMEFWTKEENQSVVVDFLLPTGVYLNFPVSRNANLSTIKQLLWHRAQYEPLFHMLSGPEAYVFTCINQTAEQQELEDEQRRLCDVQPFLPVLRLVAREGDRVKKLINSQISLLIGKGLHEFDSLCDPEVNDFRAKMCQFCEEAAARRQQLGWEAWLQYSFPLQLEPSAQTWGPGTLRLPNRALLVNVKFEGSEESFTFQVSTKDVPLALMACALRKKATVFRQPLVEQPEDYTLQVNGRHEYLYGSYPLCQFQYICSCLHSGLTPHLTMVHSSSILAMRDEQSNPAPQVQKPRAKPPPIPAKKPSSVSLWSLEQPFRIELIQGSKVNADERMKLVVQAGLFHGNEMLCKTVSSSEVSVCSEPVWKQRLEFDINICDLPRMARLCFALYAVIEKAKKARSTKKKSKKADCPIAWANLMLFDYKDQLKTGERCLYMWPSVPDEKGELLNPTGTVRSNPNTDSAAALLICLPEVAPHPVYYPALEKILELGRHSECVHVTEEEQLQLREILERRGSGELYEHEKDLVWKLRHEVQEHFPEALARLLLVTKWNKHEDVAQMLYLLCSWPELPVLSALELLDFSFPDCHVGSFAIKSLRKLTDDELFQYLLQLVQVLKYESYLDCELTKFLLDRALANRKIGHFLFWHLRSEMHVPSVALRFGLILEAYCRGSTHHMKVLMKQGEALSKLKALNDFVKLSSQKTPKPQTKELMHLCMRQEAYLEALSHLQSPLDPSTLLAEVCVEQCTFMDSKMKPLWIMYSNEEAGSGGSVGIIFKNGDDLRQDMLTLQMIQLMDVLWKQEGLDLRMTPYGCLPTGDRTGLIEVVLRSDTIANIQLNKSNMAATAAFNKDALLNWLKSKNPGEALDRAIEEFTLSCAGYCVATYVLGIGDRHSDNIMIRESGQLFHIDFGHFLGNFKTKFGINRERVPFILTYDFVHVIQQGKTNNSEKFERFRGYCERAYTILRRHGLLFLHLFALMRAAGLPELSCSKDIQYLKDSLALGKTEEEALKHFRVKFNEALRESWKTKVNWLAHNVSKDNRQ
GST-tagged PIK3Cδ in complex with PIK3R1, sequence (P27986 whole entry partner): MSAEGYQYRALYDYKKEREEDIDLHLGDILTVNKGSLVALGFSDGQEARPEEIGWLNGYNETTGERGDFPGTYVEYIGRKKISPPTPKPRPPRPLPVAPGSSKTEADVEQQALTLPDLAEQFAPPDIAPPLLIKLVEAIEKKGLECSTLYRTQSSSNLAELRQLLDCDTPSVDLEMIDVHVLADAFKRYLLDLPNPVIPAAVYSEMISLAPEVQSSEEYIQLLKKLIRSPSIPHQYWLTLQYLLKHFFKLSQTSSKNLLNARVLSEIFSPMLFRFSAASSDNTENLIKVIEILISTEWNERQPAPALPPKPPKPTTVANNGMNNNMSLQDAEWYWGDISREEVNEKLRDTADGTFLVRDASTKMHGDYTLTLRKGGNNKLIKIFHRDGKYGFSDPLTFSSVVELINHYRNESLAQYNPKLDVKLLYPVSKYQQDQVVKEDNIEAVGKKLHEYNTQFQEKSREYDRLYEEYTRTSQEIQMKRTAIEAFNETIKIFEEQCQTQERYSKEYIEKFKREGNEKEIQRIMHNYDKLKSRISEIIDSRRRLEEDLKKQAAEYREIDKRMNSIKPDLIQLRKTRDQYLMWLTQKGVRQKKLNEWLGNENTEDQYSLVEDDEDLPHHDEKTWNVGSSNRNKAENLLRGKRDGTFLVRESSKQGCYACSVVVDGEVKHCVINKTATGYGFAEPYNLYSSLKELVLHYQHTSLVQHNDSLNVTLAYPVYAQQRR

Compound	IC50 [2, 4] [nM]	IC50 [3, 5] [nM]	other results
Cc1ccc(-c2ccn3nc(N)nc3c2)c(F)c1C(=O)NC(CF)CC(O)c1ccc(Cl)cc1 (single isomer, unassigned) [Example 23, 3-(2-amino-[1,2,4]triazolo[1,5-a]pyridin-7-yl)-N-(4-(4-chlorophenyl)-1-fluoro-4-hydroxybutan-2-yl)-2-fluoro-6-methylbenzamide]	–	–	IC50 [1]: > 15000 nM
Cc1ccc(-c2ccn3nc(N)nc3c2)c(F)c1C(=O)NCC(F)(F)C(O)c1ccc(Cl)c(Cl)c1 (single isomer, unassigned) [Example 112, 3-{2-amino-[1,2,4]triazolo[1,5-a]pyridin-7-yl}-N-[3-(3,4-dichlorophenyl)-2,2-difluoro-3-hydroxypropyl]-2-fluoro-6-methylbenzamide]	–	–	IC50 [1]: > 15000 nM
Cc1ccc(-c2ccn3nc(N)nc3c2)c(F)c1C(=O)NCC(F)(F)C(O)C1CC(F)(F)C1 (stereo not shown) [Example 259, 3-(2-amino-[1,2,4]triazolo[1,5-a]pyridin-7-yl)-N-(3-(3,3-difluorocyclobutyl)-2,2-difluoro-3-hydroxypropyl)-2-fluoro-6-methylbenzamide]	–	–	IC50 [1]: > 15000 nM
Nc1nc2cc(-c3ccc(Cl)c(C(=O)NCC(F)(F)C(O)c4ccc(F)cc4F)c3F)ccn2n1 (single isomer, unassigned) [Example 178, 3-(2-amino-[1,2,4]triazolo[1,5-a]pyridin-7-yl)-6-chloro-N-(3-(2,4-difluorophenyl)-2,2-difluoro-3-hydroxypropyl)-2-fluorobenzamide]	22	0.9	–
Nc1nc2cc(-c3ccc(Cl)c(C(=O)NCC(F)(F)C(O)c4cccc(Cl)c4F)c3F)ccn2n1 (single isomer, unassigned) [Example 170, 3-(2-amino-[1,2,4]triazolo[1,5-a]pyridin-7-yl)-6-chloro-N-(3-(3-chloro-2-fluorophenyl)-2,2-difluoro-3-hydroxypropyl)-2-fluorobenzamide]	1.4	0.1	–
Nc1nc2cc(-c3ccc(Cl)c(C(=O)NCC(F)(F)C(O)c4ccc(C(F)(F)F)cc4F)c3F)ccn2n1 (stereo not shown) [Example 165, 3-(2-amino-[1,2,4]triazolo[1,5-a]pyridin-7-yl)-6-chloro-N-(2,2-difluoro-3-(2-fluoro-4-(trifluoromethyl)phenyl)-3-hydroxypropyl)-2-fluorobenzamide]	2.8	1.6	–
(R)-3-(2-amino-[1,2,4]triazolo[1,5-a]pyridin-7-yl)-6-cyclopropyl-N-(2,2-difluoro-3-(4-fluorophenyl)-3-hydroxypropyl)-2-fluorobenzamide [Example 305]	–	1.6	IC50 ([2]; HT29-L23 cells, necroptosis induced with TNFα, SMAC mimetic and Z-VAD, 6 h, maximal inhibition defined by Nec1s, read-out: pMLKL IC50): 0.6 nM
Nc1nc2cc(-c3ccc(Cl)c(C(=O)NCC(F)(F)C(O)c4cccc(Cl)n4)c3F)ccn2n1 (single isomer, unassigned) [Example 262, 3-(2-amino-[1,2,4]triazolo[1,5-a]pyridin-7-yl)-6-chloro-N-(3-(6-chloropyridin-2-yl)-2,2-difluoro-3-hydroxypropyl)-2-fluorobenzamide]	–	14	IC50 [2, 6]: 45 nM
Nc1nc2cc(-c3ccc(Cl)c(C(=O)NCCC(O)c4ccc(Cl)cn4)c3F)ccn2n1 (stereo not shown) [Example 81, 3-(2-amino-[1,2,4]triazolo[1,5-a]pyridin-7-yl)-6-chloro-N-(3-(5-chloropyridin-2-yl)-3-hydroxypropyl)-2-fluorobenzamide]	–	24	IC50 [2, 6]: 38 nM
Cc1ccc(-c2ccn3nc(N)nc3c2)c(F)c1C(=O)NCC(F)(F)[C@@H](OC(N)=O)c1ccc(F)cc1 [Example 276, (S)-3-(3-(2-amino-[1,2,4]triazolo[1,5-a]pyridin-7-yl)-2-fluoro-6-methylbenzamido)-2,2-difluoro-1-(4-fluorophenyl)propyl carbamate]	–	3.7	IC50 [2, 6]: 8.4 nM
Nc1nc2cc(-c3ccc(Cl)c(C(=O)NCC(F)(F)C(O)c4cc(F)ccc4F)c3F)ccn2n1 (single isomer, unassigned) [Example 176, 3-(2-amino-[1,2,4]triazolo[1,5-a]pyridin-7-yl)-6-chloro-N-(3-(2,5-difluorophenyl)-2,2-difluoro-3-hydroxypropyl)-2-fluorobenzamide]	1.9	0.3	–
Cc1cccc(C(O)C(F)(F)CNC(=O)c2c(Cl)ccc(-c3ccn4nc(N)nc4c3)c2F)c1 (stereo not shown) [Example 174, 3-(2-amino-[1,2,4]triazolo[1,5-a]pyridin-7-yl)-6-chloro-N-(2,2-difluoro-3-hydroxy-3-(m-tolyl)propyl)-2-fluorobenzamide]	1.4	2.8	–
Nc1nc2cc(-c3ccc(Cl)c(C(=O)NCC(F)(F)C(O)c4ccc(F)cc4F)c3F)ccn2n1 (single isomer, unassigned) [Example 179, 3-(2-amino-[1,2,4]triazolo[1,5-a]pyridin-7-yl)-6-chloro-N-(3-(2,4-difluorophenyl)-2,2-difluoro-3-hydroxypropyl)-2-fluorobenzamide]	3.7	0.3	–
Cc1ccc(-c2ccn3nc(N)nc3c2)c(F)c1C(=O)NCC(F)(F)C(O)c1c(F)cc(F)cc1F (single isomer, unassigned) [Example 284, 3-(2-amino-[1,2,4]triazolo[1,5-a]pyridin-7-yl)-N-(2,2-difluoro-3-hydroxy-3-(2,4,6-trifluorophenyl)propyl)-2-fluoro-6-methylbenzamide]	1.1	3.5	–
CC(O)(c1ccc(F)cc1)C(F)(F)CNC(=O)c1c(Cl)ccc(-c2ccn3nc(N)nc3c2)c1F (single isomer, unassigned) [Example 88, 3-(2-amino-[1,2,4]triazolo[1,5-a]pyridin-7-yl)-6-chloro-N-(2,2-difluoro-3-(4-fluorophenyl)-3-hydroxybutyl)-2-fluorobenzamide]	–	3.6	IC50 [2, 6]: 2.4 nM
COC(c1ccc(F)cc1)C(F)(F)CNC(=O)c1c(C)ccc(-c2ccn3nc(N)nc3c2)c1F (single isomer, unassigned) [Example 233, 3-(2-amino-[1,2,4]triazolo[1,5-a]pyridin-7-yl)-N-(2,2-difluoro-3-(4-fluorophenyl)-3-methoxypropyl)-2-fluoro-6-methylbenzamide]	0.5	2.6	–
Cc1ccc(C(O)C(F)(F)CNC(=O)c2c(Cl)ccc(-c3ccn4nc(N)nc4c3)c2F)c(F)c1 (stereo not shown) [Example 183, 3-(2-amino-[1,2,4]triazolo[1,5-a]pyridin-7-yl)-6-chloro-N-(2,2-difluoro-3-(2-fluoro-4-methylphenyl)-3-hydroxypropyl)-2-fluorobenzamide]	1	0.4	–
Nc1nc2cc(-c3ccc(Cl)c(C(=O)NCC(F)(F)C(O)c4cccc(F)c4)c3F)ccn2n1 (single isomer, unassigned) [Example 169, 3-{2-amino-[1,2,4]triazolo[1,5-a]pyridin-7-yl}-6-chloro-N-[2,2-difluoro-3-(3-fluorophenyl)-3-hydroxypropyl]-2-fluorobenzamide]	28	0.9	–
CCc1cc(F)c(-c2ccn3nc(N)nc3c2)cc1C(=O)NCC[C@H](O)c1ccc(Cl)cc1 [Example 157]	–	3.1	IC50 [2, 6]: 6.7 nM
Cc1nc(C)c(-c2ccn3nc(N)nc3c2)cc1C(=O)NCC(O)Cc1ccccc1 (stereo not shown) [Example 174]	–	–	IC50 ([2]; Homo sapiens, Table 23, representative compounds from WO2018/148626, read-out: pMLKL IC50): 205 nM; IC50 ([3]; Table 23, representative compounds from WO2018/148626): 48 nM
